Assay results reported in article PMC2774619 (Current Chemical Genomics, 2008).
Structures can show the parent of a compound that is named as a salt. Peptide text beside a SMILES is read from it.

Key:
[1] = target: murine M1 muscarinic acetylcholine receptor (Rattus norvegicus, UniProt P08482); assay: cell-based; details: IC50, IP-One Assay
[2] = target: free fatty acid receptor 1 (FFAR1) (Homo sapiens, UniProt O14842)
[3] = target: NPS receptor (Homo sapiens) (UniProt Q6W5P4); details: cited from earlier work
NPS receptor = details: read-out: Kd value of NPS receptor binding; reported previously; cited from earlier work
[4] = target: neuropeptide S (NPS) receptor (Homo sapiens, UniProt Q6W5P4); details: NPSR
Chain of neuropeptide S (NPS) receptor (Q6W5P4 whole entry): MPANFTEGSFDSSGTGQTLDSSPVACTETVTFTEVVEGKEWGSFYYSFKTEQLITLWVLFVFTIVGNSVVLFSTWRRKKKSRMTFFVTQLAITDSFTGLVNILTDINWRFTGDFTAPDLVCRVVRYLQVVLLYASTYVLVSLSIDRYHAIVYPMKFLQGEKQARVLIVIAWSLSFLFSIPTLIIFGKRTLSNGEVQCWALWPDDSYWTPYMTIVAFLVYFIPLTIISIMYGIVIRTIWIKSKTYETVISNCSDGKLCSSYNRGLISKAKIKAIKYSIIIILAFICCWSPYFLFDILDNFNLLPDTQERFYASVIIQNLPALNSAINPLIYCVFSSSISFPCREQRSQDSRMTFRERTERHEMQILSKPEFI

Chain of murine M1 muscarinic acetylcholine receptor (P08482 whole entry): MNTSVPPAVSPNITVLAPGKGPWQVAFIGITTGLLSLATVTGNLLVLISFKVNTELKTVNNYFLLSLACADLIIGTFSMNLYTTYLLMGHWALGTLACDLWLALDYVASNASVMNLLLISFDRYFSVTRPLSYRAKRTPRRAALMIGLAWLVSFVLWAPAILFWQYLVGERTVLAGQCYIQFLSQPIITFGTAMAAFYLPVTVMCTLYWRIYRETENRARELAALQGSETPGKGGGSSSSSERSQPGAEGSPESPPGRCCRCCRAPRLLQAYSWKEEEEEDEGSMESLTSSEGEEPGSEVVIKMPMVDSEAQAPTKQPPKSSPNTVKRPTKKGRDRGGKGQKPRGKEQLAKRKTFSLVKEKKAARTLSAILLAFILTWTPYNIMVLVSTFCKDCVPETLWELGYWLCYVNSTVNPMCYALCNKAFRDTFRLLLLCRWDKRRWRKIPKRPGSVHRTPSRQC
Chain of free fatty acid receptor 1 (FFAR1) (O14842 whole entry, species assumed): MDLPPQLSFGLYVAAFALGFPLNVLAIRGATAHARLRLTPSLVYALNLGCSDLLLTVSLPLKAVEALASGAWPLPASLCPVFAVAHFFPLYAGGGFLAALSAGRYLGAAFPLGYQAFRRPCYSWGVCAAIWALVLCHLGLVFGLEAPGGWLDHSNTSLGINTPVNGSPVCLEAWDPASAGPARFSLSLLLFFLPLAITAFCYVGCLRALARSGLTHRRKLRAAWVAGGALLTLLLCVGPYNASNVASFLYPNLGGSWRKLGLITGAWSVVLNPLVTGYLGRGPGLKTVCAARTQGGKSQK
Chain of NPS receptor (Homo sapiens) (Q6W5P4 whole entry): as the sequence (Q6W5P4 whole entry) above
Chain of Neuropeptide S (P0C0P6 68-89): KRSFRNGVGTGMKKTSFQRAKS

| Compound | IC50 [1] [nM] | also measured |
| --- | --- | --- |
| C[N+]1(C)[C@@H]2CC[C@H]1C[C@@H](OC(=O)C(CO)c1ccccc1)C2 (mixture of isomers) [Atropine methyl nitrate] | 1 |  |
| Cc1scc2c1N(C(=O)CN1CCN(C)CC1)c1ccccc1NC2=O [Telenzepine dihydrochloride] | 25 |  |
| CC(=O)O[C@H]1C[C@@H]2CC[C@@H]3[C@H](CC[C@@]4(C)[C@H]3C[C@H]([N+]3(C)CCCCC3)[C@@H]4OC(C)=O)[C@@]2(C)C[C@@H]1[N+]1(C)CCCCC1 [Pancuronium bromide] | 12600 |  |
| O=C(O)CCc1ccc(NCc2cccc(Oc3ccccc3)c2)cc1 [GW9508] |  | Ratio b/a (EC50 IP-One / EC50 calcium) [2]: 1.1 |
| C[N+]1(C)[C@@H]2CC[C@H]1C[C@@H](OC(=O)C(CO)c1ccccc1)C2 (mixture of isomers) [Atropine methyl bromide] | 3 |  |
| Neuropeptide S (from UniProt P0C0P6) |  | Kd [3]: 0.33 nM |
| CC(C)[N+](C)(CCOC(=O)C1c2ccccc2Oc2ccccc21)C(C)C [Propantheline bromide] | 1 |  |
| CC[N+](CC)(CC)CCOc1ccc(/C=C/c2ccccc2)cc1 [MG 624] | 398 |  |
| CN1[C@@H]2CC[C@H]1C[C@@H](OC(c1ccccc1)c1ccccc1N)C2 (some centres unmarked) [Aminobenztropine] | 3 |  |
| CSCC[C@H](NC(=O)CNC(=O)[C@@H](NC(=O)CNC(=O)[C@@H](NC(=O)CNC(=O)[C@H](CC(N)=O)NC(=O)[C@H](CCCNC(=N)N)NC(=O)[C@H](Cc1ccccc1)NC(=O)[C@@H](N)CO)C(C)C)[C@@H](C)O)C(=O)N[C@@H](CCCCN)C(=O)N[C@@H](CCCCN)C(=O)N[C@H](C(=O)N[C@@H](CO)C(=O)N[C@@H](Cc1ccccc1)C(=O)N[C@@H](CCC(N)=O)C(=O)N[C@@H](CCCNC(=N)N)C(=O)N[C@@H](C)C(=O)N[C@@H](CCCCN)C(=O)N[C@@H](CO)C(=O)O)[C@@H](C)O [NPS, neuropeptide S] (H-SFRNGVGTGMKKTSFQRAKS-OH) |  | Kd (NPS receptor): 0.33 nM; Ratio b/a (EC50 IP-One / EC50 calcium) [4]: 1.9 |
